Reference: patent publication US20080286394A1, “NOVEL HERBAL FORMULATION AS BRAIN TONIC” (priority 2003, published 2008)
Several values for one entry are separate records, joined by “and”; a condition that tells them apart may be missing. Equal entries are not always repeated. Marks after values point to notes of the source that are not given here.

Test system: impairment of memory acquisition in step-down test in mice
Test: Passive avoidance task (step-down test), scopolamine-induced impairment of memory acquisition
Type: in vivo
Settings: scopolamine 0.4 mg/kg alone (amnesia-inducing agent)

CN1[C@@H]2C[C@@H](OC(=O)[C@H](CO)c3ccccc3)C[C@H]1[C@@H]1O[C@@H]12 [Scopalamine, scopolamine]
Latency (sec): 7.7 ± 0.04^c sec and 7.8 ± 0.03^c sec and 7.8 ± 0.04^c sec | No of mistakes: 66.8 ± 8.9^c and 65.3 ± 8.6^c and 69.8 ± 8.9^c
